{
  "source": "patent US20230218508A1",
  "about": "“BIODEGRADABLE COMPOSITIONS AND IMPLANTS” (RE-VANA THERAPEUTICS LTD, priority 2020, published 2023)",
  "origin": "cited, not measured here",
  "molecules": {"B1": {"name": "Ranibizumab (antibody, chains of the INN, looked up, V domains shown)", "VH": "EVQLVESGGGLVQPGGSLRLSCAASGYDFTHYGMNWVRQAPGKGLEWVGWINTYTGEPTYAADFKRRFTFSLDTSKSTAYLQMNSLRAEDTAVYYCAKYPYYYGTSHWYFDVWGQGTLVTVSS", "VL": "DIQLTQSPSSLSASVGDRVTITCSASQDISNYLNWYQQKPGKAPKVLIYFTSSLHSGVPSRFSGSGSGTDFTLTISSLQPEDFATYYCQQYSTVPWTFGQGTKVEIK", "modifications": "Fab", "notes": "Marketed antibody therapeutic (LUCENTIS®) with molecular weight close to Ovalbumin"}},
  "data": [
    {"conditions": "target daily release level; for ranibizumab and BEZ about five times the literature IC50", "units": {"minimum therapeutic level": "µg/day"}, "values": [
      {"molecule": "CC(C)OC(=O)CCC/C=C\\C[C@@H]1[C@@H](CC[C@@H](O)CCc2ccccc2)[C@H](O)C[C@@H]1O", "note": "[LP, Latanoprost]", "minimum therapeutic level": 0.105},
      {"molecule": "Bevacizumab [BEZ]", "minimum therapeutic level": 0.5},
      {"molecule": "B1", "minimum therapeutic level": 0.5}
    ]}
  ]
}
